Several values for one entry are separate records, joined by “and”; a condition that tells them apart may be missing. Equal values may be shown once. Entries after “also recorded” stand apart in the source; their conditions may differ. Marks after values point to notes of the source that are not given here.
Experiments:
CREAE = CREAE studies of structured lipids (SCH in SJL mice, MOG in C57BL mice); assay type: in vivo, C57B1/6 and SJL mice; details: for Severity of CREAE (in words): oral, Studies 2 to 7, 25-350 ul; for Efficacy at low dose (FIG. 20): low dose (50 ul, Study 6); for Shape of dose response: some of the studies
[1] = system: MOG-induced CREAE in SJL Mice; assay: MOG-induced CREAE in SJL mice, forms of GLA (Table 3); assay type: in vivo; details: for Mean Clinical Score / No. with EAE: 100 μl of test lipid
EAE [2] = details: guinea pig, in vivo; cited from earlier work
EAE [3] = details: depending on dose; cited from earlier work
[4] = system: brain and spinal cord lesions of EAE; details: GGG treated mice with histological scores 2 and 3
Description: Animals were culled on PSD 25. […] Variation in the severity of changes between individual mice is summarised using a semi-quantitative five point grading system.

Compound: CCCCC/C=C\C/C=C\C/C=C\C/C=C\CCCC(=O)OC(COC(=O)CCCCCCCCC)COC(=O)CCCCCCCCC [C-A-C, Glycerol 1,3-didecanoate 2-eicosatetra-(5-Z,8-Z,11-Z,14-Z)enoate]
- Severity of CREAE (in words) (CREAE): capable of reducing severity of CREAE

Compound: CCCCC/C=C\C/C=C\C/C=C\CCCCC(=O)OCC [EE-GLA]
- Mean Clinical Score [1]: 3.0 ± 0.8
- No. with EAE [1]: 5/6

Compound: CCCCC/C=C\C/C=C\C/C=C\CCCCCCC(=O)OC(COC(=O)CCCCCCCCC)COC(=O)CCCCCCCCC [C-DHGLA-C, Glycerol 1,3-didecanoate2-eicosa-(8Z,11Z,14Z)-trienoate]
- Efficacy at low dose (FIG. 20) (CREAE): low dose efficacy
- Severity of CREAE (in words) (CREAE): capable of reducing severity of CREAE

Compound: CCCCC/C=C\C/C=C\CCCCCCCC(=O)O [linoleic acid]
- Incidence and severity of EAE (EAE [2]): partially suppresses
- Protection in acute rat EAE (EAE [3]): dose-dependent action on the clinical severity but did not abolish it

Compound: CCCCC/C=C\C/C=C\C/C=C\CCCCC(=O)OCC(COC(=O)CCCC/C=C\C/C=C\C/C=C\CCCCC)OC(=O)CCCC/C=C\C/C=C\C/C=C\CCCCC [G-G-G, glycerol tri-6,9,12-linolenate]
- EAE severity score of the mice with histological changes [4]: 1 and 1.5
- Severity of CREAE (in words) (CREAE): capable of reducing severity of CREAE
- Shape of dose response (CREAE): bell shaped response curve

Compound: CCCCC/C=C\C/C=C\C/C=C\CCCCC(=O)OC(COC(=O)CCCCCCCCC)COC(=O)CCCCCCCCC [C-G-C, Glycerol 1,3-didecanoate 2-octadecatri(6-Z9-Z,12-Z)enoate]
- Efficacy at low dose (FIG. 20) (CREAE): low dose efficacy
- Severity of CREAE (in words) (CREAE): capable of reducing severity of CREAE
- Shape of dose response (CREAE): bell shaped response curve

Compound: CCCCC/C=C\C/C=C\C/C=C\CCCCC(=O)O [γ-linolenic acid]
- Protection in acute rat EAE (EAE [3]): fully protective

Compound: CCCCC/C=C\C/C=C\C/C=C\CCCCC(=O)OCC(COC(=O)CCCC/C=C\C/C=C\C/C=C\CCCCC)OC(=O)CCCCCCCCC [G-C-G, Glycerol 1,3-dioctadeca-(6Z,9Z,12Z)-trienoate 2-decanoate, reference compound]
- Severity of CREAE (in words) (CREAE): failed to treat the condition; also recorded: lack of efficacy

Compound: CCCCC/C=C/C/C=C/C/C=C/CCCCC(=O)OCC(COC(=O)CCCC/C=C/C/C=C/C/C=C/CCCCC)OC(=O)CCCC/C=C/C/C=C/C/C=C/CCCCC [TG-GLA]
- Mean Clinical Score [1]: 1.0 ± 1.3^c
- No. with EAE [1]: 3/6
- Protective effect in CREAE (in words) ([1]; compared with borage oil): protective effects similar to that of the borage oil

Compound: CCCCC/C=C\C/C=C\C/C=C\C/C=C\CCCC(=O)OCC(COC(=O)CCC/C=C\C/C=C\C/C=C\C/C=C\CCCCC)OC(=O)CCC/C=C\C/C=C\C/C=C\C/C=C\CCCCC [A-A-A, Glycerol trieicosotetra5-Z,8-Z,11-Z,14Z-eneoate]
- Severity of CREAE (in words) (CREAE): capable of reducing severity of CREAE

— patent publication US7964641B2, “Treatment of neurodegenerative conditions” (BTG International Limited, priority 2003, dated 2011)
